Test results: patent US12509421B2, “Preparation and application of deuterated 4-phenyl-4-piperidinols” (priority 2022, dated 2025)
Structures can show the parent of a compound that is named as a salt. Where two headings read alike, the source gives them in different places.

What was measured:
CYP 3A4 = CYP 3A4 (Homo sapiens, UniProt P08684); settings: read-out: CYP 3A4 IC50, human liver microsomes
CYP 2C19 = CYP 2C19 (Homo sapiens, UniProt P33261); assay: Inhibition of cytochrome P450 enzyme in human liver microsomes, CYP 2C19; settings: read-out: CYP 2C19 IC50; human liver microsomes; substrate (S)-mephenytoin
CYP 2C9 = CYP 2C9 (Homo sapiens, UniProt P11712); assay: Inhibition of cytochrome P450 enzyme in human liver microsomes, CYP 2C9; settings: read-out: CYP 2C9 IC50; human liver microsomes; substrate Diclofenac
CYP 2D6 = CYP 2D6 (Homo sapiens, UniProt P10635); assay: Inhibition of cytochrome P450 enzyme in human liver microsomes, CYP 2D6; settings: read-out: CYP 2D6 IC50; human liver microsomes; substrate Dextromethorphan
CYP 1A2 = target: T1, CYP 1A2 (Homo sapiens, UniProt P05177); assay: Inhibition of cytochrome P450 enzyme in human liver microsomes, CYP 1A2; settings: read-out: CYP 1A2 IC50; human liver microsomes; substrate Finacetin
T1 sequence (P05177 1-516): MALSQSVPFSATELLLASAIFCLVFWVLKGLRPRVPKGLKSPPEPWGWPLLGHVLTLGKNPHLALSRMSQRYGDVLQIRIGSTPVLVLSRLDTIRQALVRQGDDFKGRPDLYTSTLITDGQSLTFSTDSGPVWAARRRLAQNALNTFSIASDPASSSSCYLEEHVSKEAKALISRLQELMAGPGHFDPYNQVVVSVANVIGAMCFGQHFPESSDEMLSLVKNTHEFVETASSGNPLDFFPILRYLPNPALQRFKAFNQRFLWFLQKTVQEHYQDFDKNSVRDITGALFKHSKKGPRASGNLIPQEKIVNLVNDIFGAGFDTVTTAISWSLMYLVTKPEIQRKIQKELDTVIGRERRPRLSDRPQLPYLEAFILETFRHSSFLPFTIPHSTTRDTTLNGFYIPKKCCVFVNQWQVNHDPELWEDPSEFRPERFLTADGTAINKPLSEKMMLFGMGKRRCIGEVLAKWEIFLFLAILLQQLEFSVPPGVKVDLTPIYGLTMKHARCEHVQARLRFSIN

Female Kunming mice = assay: Hot plate analgesia test in mice; assay type: in vivo; settings: intraperitoneal, 55° C. hot plate; for ED50: Mus musculus, ip; for Maximum analgesic effective percentage (% MPE), hot plate: 10 mg/kg
Protocol: Female Kunming mice weighing about 20 g are placed on a hot plate instrument preheated to 55° C., and the latency of licking hind feet or lifting hind feet is used as the pain threshold index. Animals are screened before the experiment, and animals with latency less than 5 s or more than 30 s are excluded. To prevent foot burns, the longest observation time is set to 60s. The basic pain threshold is the average of two measurements, and the interval between the two measurements is 5 minutes. The pain threshold of mice in each group is determined at 15 minutes, 30 minutes, 60 minutes and 120 minutes after intraperitoneal administration. The effective percentage of analgesia (% MPE) is calculated according to the following formula
[formula] According to the effective percentage of analgesia, the ED50 value is calculated by graphpad prism 5.0 software.

hERG potassium channel = hERG potassium channel (Homo sapiens, UniProt Q12809); assay: hERG potassium channel whole-cell patch clamp (HEK293); assay type: cell-based; parameters: expressed in transfected cells; host or cells: HEK293 cell line; settings: for IC50: HEK293 cells stably expressing hERG, whole-cell patch clamp, room temperature, read-out: Half-inhibition concentration of compounds to be tested on hERG (IC50)
Source text: The rapidly activated potassium channel encoded by human ether-a-go-go-related gene (hERG) is an important ion channel involved in the formation of phase 3 repolarization of myocardial action potential. […] Drug-induced delayed ventricular repolarization may cause fatal arrhythmia-torsade de pointes in some cases. According to statistics, about 25-40% of the lead compounds show different degrees of hERG-related toxicity, and many drugs are withdrawn from the market because they may lead to the risk of QT interval extension. At present, National Medical Products Administration also requires hERG/IKr safety evaluation data before clinical trial application (IND) of new drugs under study. • 1. Whole-cell patch clamp technique is used to study the inhibitory effect of compounds on hERG potassium channels: • 1) the compound to be tested is stored with physiological saline prepared into 10 mM liquid. The test stock solution is diluted with physiological saline into 3 mM, 1 mM and 0.3 mM diluents in turn. […] The old culture medium removed and is washed once with PBS, then added with 1 mL TrypLE™ Express solution and incubated at 37° C. for about 0.5 minutes. When the cells are detached from the bottom of the dish, about 5 ml complete medium preheated is added at 37° C. The cell suspension is gently blown with a straw to separate the aggregated cells. The cell suspension is transferred to a sterile centrifuge tube and centrifuged at 1000 rpm for 5 minutes to collect cells. […] The clamping voltage is depolarized from −80 mV to −50 mV for 0.5 seconds (as leakage current detection), then stepped to 30 mV for 2.5 seconds, and then quickly recovered to −50 mV for 4 seconds, which can excite the tail current of hERG channel. Data are collected repeatedly every 10s to observe the effect of drugs on hERG tail current. 0.5 seconds-50 mV stimulation is used as leakage current detection. The test data are collected by IPA amplifier (Sutter Instrument) and stored in SutterPatch software.
Capillary glass tube is drawn into recording electrode by microelectrode drawing instrument. Under the inverted microscope, the microelectrode manipulator is operated to contact the recording electrode with the cell, and negative pressure suction is given to form a GΩ seal. After the GΩ seal is formed, rapid capacitance compensation is carried out, and then negative pressure is continuously applied to break the cell membrane, forming a whole cell recording mode. Then the slow capacitance is compensated and the film capacitance and series resistance are recorded. No leakage compensation is given.
When the hERG current recorded in the whole cell is stable, the drug is administered, and the next concentration is detected after each drug concentration acts for 5 minutes (or the current is stable), and multiple concentrations are detected for each test compound. The cover glass covered with cells is placed in the recording bath in an inverted microscope, and the test compound and the external liquid containing no compound flowed through the recording bath from low concentration to high concentration by gravity perfusion method, so as to act on the cells, and liquid exchange is carried out by using a vacuum pump during recording. The current detected by each cell in the external fluid without compounds is used as its own control group.
At least two cells are used to detect each concentration independently and repeatedly twice. All electrophysiological tests are conducted at room temperature.
Firstly, the current after each drug concentration and the blank control current are standardized
[formula] followed by the calculation of the inhibition rate
[formula] corresponding to each drug concentration, the average and standard deviation for each concentration, and the semi-inhibition concentration of each compound with the following equation: […]
The dose-dependent effect is nonlinear fitted by the above equation, and IC50 is semi-inhibitory concentration.

κOR = target: T2, κOR (Homo sapiens, UniProt P41145); assay: Opioid receptor competitive binding test, κOR; settings: compound at 10 μM; [3H]-labeled ligand; CHO cell membranes; ± SD of three measurements
T2 construct: expressed in transfected cells; host or cells: CHO cells
Protocol: (§1) CHO cells expressing p opioid receptor, δ opioid receptor and K opioid receptor are cultured in a 10 cm^2 Petri dish (F-12 medium+10% newborn bovine serum) for several days, and the culture solution is sucked after the cells grew to the bottom of the dish. 3 ml PBS/EDTA solution (0.1M NaCl, 0.01M NaH2PO4, 0.04% EDTA) is added for digestion for 3-5 minutes. The cells are blown with a straw to get fall off completely, collected in a 40 ml centrifuge tube, centrifuged at 5000 rpm for 5 minutes, and removed with the supernatant. The centrifuge tube is added with ice-cold homogenate (50 mM HEPES PH 7.4, 3 mM MgCl2, 1 mM EGTA). The solution and precipitate are transferred to homogenizer for homogenization; Then the homogenate is transferred into a centrifuge tube, centrifuged at 18000 rpm for 15 minutes, and centrifuged twice; the obtained precipitate is added with an appropriate amount of buffer solution of 50 mM Tris-HCl and pH 7.4, homogenized and sub-packaged in centrifuge tubes. The product is stored in a refrigerator at −70° C. for later use.
(§2) 20-30 μg expressed membrane receptor protein and [3H]-labeled ligand (1-2 nM) are added to the total binding tube, added with 1 μM of corresponding ligand to the corresponding nonspecific binding tube. Various screened opioid ligand drugs (see the drug compounds in Table 1 below) are added to the sample tube with 100 μL final volume. The sample is incubated at 30° C. for 30 minutes, and the reaction is terminated in ice water. The glass fiber filter paper gF/C (whatman) is used for negative pressure filtration on Millipore sample collector. The sample is eluted with 4 ml 50 mm tris-HCl (pH 7.4) for three times, dried with the filter paper, put in 0.5 ml Eppendorf tube and added with 0.5 ml lipophilic scintillation liquid. The radioactive intensity is measured with PERKIN ELMER PRI-CARB 2910 liquid scintillation counter with calculation of the inhibition rate. The experiment is repeated for more than three times, with three compound tubes in each group. Inhibition rate(or binding rate)=(total binding rate dpm−sample tube dpm)/(total binding tube dpm-nonspecific binding tube dpm)×100%
(§3) IC50 is calculated with Prism 5.0 software. The Ki value is calculated according to the following formula: Ki=IC50/(1^+[L]/Kd), wherein [L] is the concentration of the added labeled ligand, and Kd is the equilibrium dissociation parameter of the labeled ligand.

μOR = target: T3, μOR (Homo sapiens, UniProt P35372); assay: Opioid receptor competitive binding test, μOR; settings: compound at 10 μM; [3H]-labeled ligand; CHO cell membranes; ± SD of three measurements
T3 construct: expressed in transfected cells; host or cells: CHO cells
Protocol: as §1, §2, §3

δOR = target: T4, δOR (Homo sapiens, UniProt P41143); assay: Opioid receptor competitive binding test, δOR; settings: compound at 10 μM; [3H]-labeled ligand; CHO cell membranes; ± SD of three measurements
T4 construct: expressed in transfected cells; host or cells: CHO cells
Protocol: as §1, §2, §3

SMILES | IC50 (CYP 3A4; substrate midazolam) | IC50 (CYP 3A4; substrate testosterone) | IC50 (CYP 2C19) | IC50 (CYP 2C9) | IC50 (CYP 2D6) | IC50 (CYP 1A2) | ED50 (Female Kunming mice) | hERG inhibition grade (hERG potassium channel) | IC50 (hERG potassium channel) | κOR binding rate (κOR) | μOR binding rate (μOR) | δOR binding rate (δOR) | Maximum analgesic effective percentage (% MPE), hot plate (Female Kunming mice)
COc1cccc([C@]2(O)CCN(S(=O)(=O)Cc3ccccc3)C[C@H]2CN(C)C)c1.Cl [Example 20 of CN201911076305.X, (3R, 4S)-1-(benzylsulfonyl)-3-(dimethylamino)methyl)-4-(3-methoxyphenyl)-4-piperidinol hydrochloride, reference compound] | 32.3 µM | 46.4 µM | > 50 µM | > 50 µM | 9.61 µM | > 50 µM | – | – | – | – | – | – | –
[2H]C([2H])([2H])N(C)CC1CN(S(=O)(=O)Cc2ccccc2)CCC1(O)c1cccc(OC)c1 (stereo not drawn) [I-1hydrochloride] | – | – | – | – | – | – | 0.62 mg/kg | μM((Weak inhibition) | 12.9 µM | 22.5 ± 3.2% | 23.95 ± 3.8% | 11.4 ± 1.7% | –
[2H]C([2H])([2H])Oc1cccc(C2(O)CCN(S(=O)(=O)Cc3ccccc3)CC2CN(C([2H])([2H])[2H])C([2H])([2H])[2H])c1 (stereo not drawn) [I-3hydrochloride] | – | – | – | – | – | – | 0.82 mg/kg | μM((Weak inhibition) | 16.6 µM | 14.9 ± 0.9% | 22.75 ± 2.3% | 8.6 ± 1.2% | –
[2H]C([2H])([2H])N(CC1CN(S(=O)(=O)Cc2ccccc2)CCC1(O)c1cccc(OC)c1)C([2H])([2H])[2H] (stereo not drawn) [I-4hydrochloride] | – | – | – | – | – | – | – | μM((Weak inhibition) | 11 µM | 18.5 ± 3.2% | 25.9 ± 3.9% | 10.1 ± 0.6% | 100%
[2H]C([2H])([2H])Oc1cccc(C2(O)CCN(C(=O)Cc3cc(F)c(F)cc3F)CC2CN(C([2H])([2H])[2H])C([2H])([2H])[2H])c1 (stereo not drawn) [I-7hydrochloride] | – | – | – | – | – | – | 0.89 mg/kg | μM((Weak inhibition) | 21.6 µM | 15.9 ± 0.7% | 20.7 ± 2.2% | 9.9 ± 0.5% | –
[2H]C([2H])([2H])N(CC1CN(C(=O)Cc2cc(F)c(F)cc2F)CCC1(O)c1cccc(OC)c1)C([2H])([2H])[2H] (stereo not drawn) [I-8hydrochloride] | – | – | – | – | – | – | – | μM((Weak inhibition) | 16.8 µM | 16.4 ± 2.6% | 22.8 ± 2.8% | 8.2 ± 0.9% | 100%
